Laboratory results published in paper PMC4516313 (Journal of Medicinal Chemistry, 2015).
Where two headings read alike, the source gives them in different places.

What was measured:
[1] = test system: rats; conditions: cited from earlier work
[2] = test system: rats; conditions: cited from earlier work; remark: listed apart in the source
[3] = test system: tobacco smokers; conditions: smokers after overnight abstinence; cited from earlier work
[4] = test system: abstinent smokers; conditions: cited from earlier work
[5] = test system: overweight and obese subjects; conditions: cited from earlier work
[6] = test system: monkeys; conditions: 5 day treatment; cited from earlier work
[7] = test system: cocaine abusers; conditions: cited from earlier work
[8] = test system: D3R; conditions: primates, PET, oral 1.0 mg/kg; cited from earlier work
[9] = test system: monkeys; conditions: cited from earlier work
[10] = test system: rats; conditions: cited from earlier work; remark: listed apart in the source
[11] = test system: rats; conditions: unpublished results
[12] = test system: rats
[13] = test system: rhesus monkeys; conditions: cited from earlier work
[14] = test system: 64 radioligand/enzyme assays; conditions: 10 μM; e.g. α1 adrenergic, α2 adrenergic, histamine H1, sodium channel site 2, CCK1, NK2
[15] = test system: cynomolgus monkeys
[16] = test system: rhesus monkeys; conditions: 5 day treatment, 3.0 mg/kg i.v., two of three monkeys
[17] = test system: monkeys; conditions: monkeys trained to discriminate cocaine, preliminary unpublished results
[18] = test system: squirrel monkeys; conditions: cited from earlier work
[19] = test system: rhesus monkeys; conditions: cited from earlier work; remark: listed apart in the source
[20] = test system: D3R; conditions: cited from earlier work
[21] = test system: humans; conditions: cited from earlier work
[22] = history of long access (6 h per day, 6 days per week)
[23] = history of short access (1 h per day, 3 days per week)

O=C(NCCCCN1CCN(c2cccc(Cl)c2Cl)CC1)c1ccc2c(c1)Cc1ccccc1-2 [Compound 2, N-(4-(4-(2,3-dichlorophenyl)piperazin-1-yl)butyl)-9H-fluorene-2-carboxamide]
break point, cocaine PR schedule [1]: significantly lowered the break point
cue- and cocaine-induced reinstatement of cocaine seeking [2]: blocked both cue- and cocaine-induced reinstatement of cocaine seeking

Cc1ncoc1-c1nnc(SCCCN2C[C@@H]3C[C@]3(c3ccc(C(F)(F)F)cc3F)C2)n1C [Compound 7]
craving [3]: transiently alleviated craving
attentional bias, Stroop Task [4]: partially attenuated an attentional bias
approach bias [5]: reduced approach bias
attentional bias to palatable food cues [5]: reduced

O=C1CC2(CCCC2)CC(=O)N1CCCCN1CCN(c2ncccn2)CC1 [buspirone]
cocaine choice [6]: increased cocaine choice
cocaine use ([7]; 60 mg): increased cocaine use in women
treatment-emergent adverse events [7]: did not include increases in blood pressure
D3R occupancy [8]: < 20%
cocaine-maintained vs food-reinforced behavior ([9]; monkeys self-administering cocaine): decreased cocaine-maintained behavior to a larger degree than food-reinforced behavior
cocaine self-administration vs food-reinforced responding ([9]; rhesus monkeys, continuous infusions): decreased cocaine self-administration to a greater degree than food-reinforced responding

O=C(NC/C=C/CN1CCN(c2cccc(Cl)c2Cl)CC1)c1ccc(-c2ccccn2)cc1 [Compound 3]
PR METH self-administration [10, 22]: reduced PR METH self-administration
PR METH self-administration [10, 23]: in contrast to 3

O=C(NCC[C@H](O)CN1CCN(c2cccc(Cl)c2Cl)CC1)c1cc2ccccc2[nH]1 [(S)-1]
effect on 7-OH DPAT-induced yawning [11]: attenuated 7-OH DPAT-induced yawning in rats
Dunnett's test p vs vehicle, PR break points normalized to baseline ([12]; 3.0 mg/kg i.p.): < 0.01
Dunnett's test p vs vehicle, number of METH injections ([12]; 3.0 mg/kg i.p.): > 0.05
Dunnett's test p vs vehicle, PR break points normalized to baseline ([12]; 10 mg/kg i.p.): < 0.001
Dunnett's test p vs vehicle, number of METH injections ([12]; 10 mg/kg i.p.): < 0.001

CCCN1CCC[C@@H]2Cc3n[nH]cc3C[C@H]21 [quinpirole, reference compound]
yawning ([13]; cocaine-naïve rhesus monkeys): induces robust yawning

O=C(NCCC(O)CN1CCN(c2cccc(Cl)c2Cl)CC1)c1cc2ccccc2[nH]1 (racemic) [(±)-1, N-(4-(4-(2,3-dichlorophenyl)piperazin-1-yl)-3-hydroxybutyl)-1H-indole-2-carboxamide]
effect on 7-OH DPAT-induced yawning [11]: attenuated 7-OH DPAT-induced yawning in rats
hits in the receptor panel [14]: only “hit” a few
cocaine choice, group data, posthoc comparison ([15]; 0.01 mg/kg cocaine available as the alternative to food): significant increase in cocaine choice
effect on cocaine choice curve ([15]; seven cynomolgus monkeys, acute i.v., in all but one monkey): either shifted the cocaine choice curve to the left (4 subjects) or had no effect (2 subjects)
effect on METH choice curve [16]: produced a leftward shift of the METH choice curve
substitution for cocaine [17]: does not substitute for cocaine
Dunnett's test p vs vehicle, PR break points normalized to baseline ([12]; 3.0 mg/kg i.p.): > 0.05
Dunnett's test p vs vehicle, number of METH injections ([12]; 3.0 mg/kg i.p.): > 0.05
Dunnett's test p vs vehicle, PR break points normalized to baseline ([12]; 10 mg/kg i.p.): < 0.001
Dunnett's test p vs vehicle, number of METH injections ([12]; 10 mg/kg i.p.): < 0.001
effect on PR break points normalized to baseline responding ([12]; i.p., 3.0 and 10 mg/kg): significantly reduced PR break points
effect on number of METH injections (PR) ([12]; i.p., 3.0 and 10 mg/kg): significantly and dose-dependently reduced METH injections

O=C(NCCCCN1CCN(c2cccc(Cl)c2Cl)CC1)c1ccc(-c2ccccn2)cc1 [Compound 17, N-(4-(4-(2,3-dichlorophenyl)piperazin-1-yl)butyl)-4-(pyridin-2-yl)benzamide]
PR METH self-administration [10, 22]: reduced PR METH self-administration
PR METH self-administration [10, 23]: also reduced PR METH self-administration
cocaine self-administration and cocaine-induced reinstatement [18]: failed to attenuate cocaine self-administration or cocaine-induced reinstatement
yawning ([13]; cocaine-naïve rhesus monkeys): failed to do so
yawning ([13]; monkeys with a history of cocaine self-administration): induced yawning similar in magnitude to quinpirole
cocaine- and food-maintained responding ([19]; monkeys, second-order schedule of reinforcement): decreased both cocaine- and food-maintained responding
cocaine's discriminative stimulus effects ([19]; rhesus monkeys): attenuated cocaine’s discriminative stimulus effects

O=C(NCC[C@@H](O)CN1CCN(c2cccc(Cl)c2Cl)CC1)c1cc2ccccc2[nH]1 [(R)-1]
Dunnett's test p vs vehicle, PR break points normalized to baseline ([12]; 3.0 mg/kg i.p.): < 0.001
Dunnett's test p vs vehicle, number of METH injections ([12]; 3.0 mg/kg i.p.): < 0.01
Dunnett's test p vs vehicle, PR break points normalized to baseline ([12]; 10 mg/kg i.p.): < 0.001
Dunnett's test p vs vehicle, number of METH injections ([12]; 10 mg/kg i.p.): < 0.01

CN(C)C(=O)N[C@H]1CC[C@H](CCN2CCN(c3cccc(Cl)c3Cl)CC2)CC1 [Compound 6, cariprazine]
D3R-preferential [20]: approximately 10 fold

COc1ccccc1N1CCN(CCCCNC(=O)c2ccc3ccccc3c2)CC1 [Compound 8]
outcome of clinical trials for cocaine abuse [21]: failed in clinical trials for cocaine abuse
